In patent US10941157B2, “Pesticidal compositions and uses thereof” (Gilead Apollo, LLC, priority 2015, dated 2021):
Values after ≈ are worked out from the molar mass of the structure shown. Like-named read-outs stand apart in the source and are kept apart here.

Legend:
[1] = system: Fusarium virguliforme (Fv); assay: In vitro pathogen growth inhibition assay, Fv; type: cell-based
Summary of the method: (§1)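 Spores in 17% V8 liquid medium, or 1.5 mm Rs mycelial plugs in ¼ PDB, incubated with compound; final concentration checked by OD600 for precipitation. OD readings at 24 and 48 h, blank-subtracted, plus visual ratings; value is concentration giving ≥90% growth inhibition.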

Septoria tritici (St) = assay: In vitro pathogen growth inhibition assay, St; type: cell-based; conditions: Zymoseptoria tritici, 48 h
Summary of the method: (§2)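 Value reported is the compound concentration reaching ≥90% growth inhibition, from OD readings at 24 and 48 h after blank subtraction, confirmed visually. Inoculum was spores diluted in 17% V8 medium, except Rs, using 1.5 mm mycelial plugs in ¼ PDB; actual compound concentration corrected via OD600.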

[2] = system: Mycosphaerella graminicola (synthetic Septoria tritici); assay: Foliar protection test for wheat septoria leaf blotch control; type: in vivo; conditions: foliar spray on Triticum aestivum cv. WinterHawk, inoculated 1 hour after treatment, evaluated 16 days later
[3] = system: Phytophthora capsici (Pc); assay: In vitro pathogen growth inhibition assay, Pc; type: cell-based; conditions: 48 h
Summary of the method: as §1

Sphaerotheca fuliginea = assay: Foliar protection for cucumber powdery mildew control; type: in vivo; conditions: foliar spray on Cucumis sativus cv. Straight Eight, inoculated 24 hours after treatment, evaluated 7 days later
Summary of the method: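 Protective foliar spray on 10-day-old Straight Eight cucumbers, with S. fuliginea spores dusted from infected stock plants 24 h after treatment. Disease developed at 23–27 °C, 60% RH and a 16 h photoperiod. Leaves were rated for mildew growth after 7 days; test rates 10 ppm or below.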

Diplodia maydis (Dm) = assay: In vitro pathogen growth inhibition assay, Dm; type: cell-based; conditions: Stenocarpella maydis, 48 h
Summary of the method: as §1

Fusarium graminearum = type: in vivo; conditions: spray on flowering Triticum aestivum cv. Samson, inoculated 24 hours after treatment, evaluated 14 days later
[4] = system: Blumeria graminis f. sp. hordei; assay: Foliar protection test for barley powdery mildew control; type: in vivo; conditions: foliar spray on Hordeum vulgare cv. Perry, inoculated 24 hours after treatment, evaluated 7 days later
Summary of the method: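 Protective foliar test: compound atomized onto both leaf surfaces of 6-day-old Hordeum vulgare cv. Perry, followed after 24 h by spore-cloud inoculation from colonized untreated plants. Disease rated on leaves 7 days on, plants held at 20 to 22° C and 70% RH.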

Rhizoctonia solani (Rs) = assay: In vitro pathogen growth inhibition assay, Rs (mycelial plugs); type: cell-based; conditions: Rhizoctonia solani, 48 h, mycelial plugs
Summary of the method: as §1

[5] = system: Fusarium moniliforme (Fm); assay: In vitro pathogen growth inhibition assay, Fm; type: cell-based; conditions: Fusarium verticillioides
Summary of the method: as §2

Phakopsora pachyrhizi = assay: Foliar protection test for Asian soybean rust control; type: in vivo; conditions: foliar application to soybean (Glycine max AG4832), percent disease area evaluated 14 days later
Puccinia triticina = assay: Foliar protection test for wheat leaf rust control; type: in vivo; conditions: foliar application to wheat (Triticum aestivum cv. Winterhawk), evaluated 10 days later
Botrtyis cinerea (Bc) = assay: In vitro pathogen growth inhibition assay, Bc; type: cell-based; conditions: 48 h
Summary of the method: as §2

[6] = system: Collectotrichum graminicola (Cg); assay: In vitro pathogen growth inhibition assay, Cg; type: cell-based; conditions: 48 h
Summary of the method: as §2

[7] = ≥90% growth inhibition, 48 hours, vs 2% DMSO control, read-out: Compound Concentration (ppm) sufficient for ≥90% inhibition of Fv
[8] = ≥90% growth inhibition, 48 hours, vs 2% DMSO control, read-out: Compound Concentration (ppm) sufficient for ≥90% inhibition of St
[9] = ≥90% growth inhibition, 48 hours, vs 2% DMSO control, read-out: Compound Concentration (ppm) sufficient for ≥90% inhibition of Pc
[10] = ≥90% growth inhibition, 48 hours, vs 2% DMSO control, read-out: Compound Concentration (ppm) sufficient for ≥90% inhibition of Dm
[11] = ≥90% growth inhibition, 48 hours, vs 2% DMSO control, read-out: Compound Concentration (ppm) sufficient for ≥90% inhibition of Rs
[12] = ≥90% growth inhibition, 48 hours, vs 2% DMSO control, read-out: Compound Concentration (ppm) sufficient for ≥90% inhibition of Fm
[13] = ≥90% growth inhibition, 48 hours, vs 2% DMSO control, read-out: Compound Concentration (ppm) sufficient for ≥90% inhibition of Bc
[14] = ≥90% growth inhibition, 48 hours, vs 2% DMSO control, read-out: Compound Concentration (ppm) sufficient for ≥90% inhibition of Cg

Structure (SMILES): COc1ccc(F)cc1[C@H](Cn1c(=O)n([C@@H](C)C(=O)NC(C)C)c(=O)c2c(C)c(-n3nccn3)sc21)OCCO [Compound I-096, (S)-2-(1-((R)-2-(5-fluoro-2-methoxyphenyl)-2-(2-hydroxyethoxy)ethyl)-5-methyl-2,4-dioxo-6-(2H-1,2,3-triazol-2-yl)-1,4-dihydrothieno[2,3-d]pyrimidin-3 (2H)-yl)-N-isopropylpropanamide]
- IC90 ([1]; ≥90% inhibition, 48 hours vs 2% DMSO control, read-out: Compound Concentration (ppm) sufficient for ≥90% inhibition of growth, Fv): 2 µg/mL (≈ 3.48 µM)
- IC90 (Septoria tritici (St); ≥90% inhibition, 48 hours vs 2% DMSO control, read-out: Compound Concentration (ppm) sufficient for ≥90% inhibition of growth, St): ≥ 2 µg/mL
- Septoria Leaf Blotch Control at a compound concentration of 25 ppm or lower [2]: B (from 50 to 69% control of wheat septoria leaf blotch)
- IC90 ([3]; ≥90% inhibition, 48 hours vs 2% DMSO control, read-out: Compound Concentration (ppm) sufficient for ≥90% inhibition of growth, Pc): 2 µg/mL (≈ 3.48 µM)
- Cucumber Powdery Mildew Control at a compound concentration of 10 ppm or lower (Sphaerotheca fuliginea): AA (≥85% control of cucumber powdery mildew)
- IC90 (Diplodia maydis (Dm); ≥90% inhibition, 48 hours vs 2% DMSO control, read-out: Compound Concentration (ppm) sufficient for ≥90% inhibition of growth, Dm): 0.4 µg/mL (≈ 0.696 µM)
- Wheat Fusarium Head Blight Control at a compound concentration of 25 ppm or lower (Fusarium graminearum): D (<25% control of wheat fusarium head blight)
- Barley Powdery Mildew Control at a compound concentration of 10 ppm or lower [4]: B (from 50 to 69% control of barley powdery mildew)
- IC90 (Rhizoctonia solani (Rs); ≥90% inhibition, 48 hours vs 2% DMSO control, read-out: Compound Concentration (ppm) sufficient for ≥90% inhibition of growth, Rs): 0.08 µg/mL (≈ 0.139 µM)
- IC90 ([5]; ≥90% inhibition, 48 hours vs 2% DMSO control, read-out: Compound Concentration (ppm) sufficient for ≥90% inhibition of growth, Fm): 0.08 µg/mL (≈ 0.139 µM)
- Asian Soybean Rust Control at a compound concentration of 25 ppm or lower (Phakopsora pachyrhizi): A (from 70% to 84% control of Asian soybean rust)
- Wheat Leaf Rust Control at a compound concentration of 10 ppm or lower (Puccinia triticina): A (from 70% to 84% control of wheat leaf rust)
- IC90 (Botrtyis cinerea (Bc); ≥90% inhibition, 48 hours vs 2% DMSO control, read-out: Compound Concentration (ppm) sufficient for ≥90% inhibition of growth, Bc): 2 µg/mL (≈ 3.48 µM)
- IC90 ([6]; ≥90% inhibition, 48 hours vs 2% DMSO control, read-out: Compound Concentration (ppm) sufficient for ≥90% inhibition of growth, Cg): 0.08 µg/mL (≈ 0.139 µM)

Structure (SMILES): COCCO[C@@H](Cn1c(=O)n([C@H](C)C(=O)NC(C)C)c(=O)c2c(C)c(-n3nccn3)sc21)c1cc(F)ccc1OC [Compound I-171, (R)-2-(1-((R)-2-(5-fluoro-2-methoxyphenyl)-2-(2-methoxyethoxy)ethyl)-5-methyl-2,4-dioxo-6-(2H-1,2,3-triazol-2-yl)-1,4-dihydrothieno[2,3-d]pyrimidin-3 (2H)-yl)-N-isopropylpropanamide]
- IC90 [1, 7]: ≥ 0.4 µg/mL
- IC90 (Septoria tritici (St); [8]): ≥ 2 µg/mL
- Septoria Leaf Blotch Control at a compound concentration of 25 ppm or lower [2]: AA (≥85% control of wheat septoria leaf blotch)
- IC90 [3, 9]: ≥ 10 µg/mL
- Cucumber Powdery Mildew Control at a compound concentration of 10 ppm or lower (Sphaerotheca fuliginea): AA (≥85% control of cucumber powdery mildew)
- IC90 (Diplodia maydis (Dm); [10]): 0.08 µg/mL (≈ 0.136 µM)
- Wheat Fusarium Head Blight Control at a compound concentration of 25 ppm or lower (Fusarium graminearum): C (from 25 to 49% control of wheat fusarium head blight)
- Barley Powdery Mildew Control at a compound concentration of 10 ppm or lower [4]: AA (≥85% control of barley powdery mildew)
- IC90 (Rhizoctonia solani (Rs); [11]): 0.08 µg/mL (≈ 0.136 µM)
- IC90 [5, 12]: 0.08 µg/mL (≈ 0.136 µM)
- Asian Soybean Rust Control at a compound concentration of 25 ppm or lower (Phakopsora pachyrhizi): A (from 70% to 84% control of Asian soybean rust)
- Wheat Leaf Rust Control at a compound concentration of 10 ppm or lower (Puccinia triticina): B (from 50 to 69% control of wheat leaf rust)
- IC90 (Botrtyis cinerea (Bc); [13]): 0.08 µg/mL (≈ 0.136 µM)
- IC90 [6, 14]: 0.08 µg/mL (≈ 0.136 µM)

Structure (SMILES): CCOC(=O)c1sc2c(c1C)c(=O)n(C(C)(C)C(=O)NC(C)C)c(=O)n2C[C@H](OCCO)c1cc(F)ccc1OC [Compound I-184, (R)-ethyl-1-(2-(5-fluoro-2-methoxyphenyl)-2-(2-hydroxyethoxy)ethyl)-3-(1-(isopropylamino)-2-methyl-1-oxopropan-2-yl)-5-methyl-2,4-dioxo-1,2,3,4-tetrahydrothieno[2,3-d]pyrimidine-6-carboxylate]
- IC90 [1, 7]: 2 µg/mL (≈ 3.37 µM)
- IC90 (Septoria tritici (St); [8]): > 50 µg/mL
- Septoria Leaf Blotch Control at a compound concentration of 25 ppm or lower [2]: C (from 25 to 49% control of wheat septoria leaf blotch)
- IC90 [3, 9]: 50 µg/mL (≈ 84.2 µM)
- Cucumber Powdery Mildew Control at a compound concentration of 10 ppm or lower (Sphaerotheca fuliginea): AA (≥85% control of cucumber powdery mildew)
- IC90 (Diplodia maydis (Dm); [10]): 0.4 µg/mL (≈ 0.674 µM)
- Wheat Fusarium Head Blight Control at a compound concentration of 25 ppm or lower (Fusarium graminearum): A (from 70% to 84% control of wheat fusarium head blight)
- Barley Powdery Mildew Control at a compound concentration of 10 ppm or lower [4]: A (from 70% to 84% control of barley powdery mildew)
- IC90 (Rhizoctonia solani (Rs); [11]): 0.08 µg/mL (≈ 0.135 µM)
- IC90 [5, 12]: 0.08 µg/mL (≈ 0.135 µM)
- Asian Soybean Rust Control at a compound concentration of 25 ppm or lower (Phakopsora pachyrhizi): B (from 50 to 69% control of Asian soybean rust)
- Wheat Leaf Rust Control at a compound concentration of 10 ppm or lower (Puccinia triticina): AA (≥85% control of wheat leaf rust)
- IC90 (Botrtyis cinerea (Bc); [13]): 2 µg/mL (≈ 3.37 µM)
- IC90 [6, 14]: 0.4 µg/mL (≈ 0.674 µM)

Structure (SMILES): CCOC(=O)c1sc2c(c1C)c(=O)n(C(C)(C)C(=O)NC(C)C)c(=O)n2C[C@H](O)c1cc(F)ccc1OC [Compound I-186, (R)-ethyl-1-(2-(5-fluoro-2-methoxyphenyl)-2-hydroxyethyl)-3-(1-(isopropylamino)-2-methyl-1-oxopropan-2-yl)-5-methyl-2,4-dioxo-1,2,3,4-tetrahydrothieno[2,3-d]pyrimidine-6-carboxylate]
- IC90 [1, 7]: 0.08 µg/mL (≈ 0.146 µM)
- IC90 (Septoria tritici (St); [8]): > 50 µg/mL
- Septoria Leaf Blotch Control at a compound concentration of 25 ppm or lower [2]: D (<25% control of wheat septoria leaf blotch)
- IC90 [3, 9]: > 50 µg/mL
- Cucumber Powdery Mildew Control at a compound concentration of 10 ppm or lower (Sphaerotheca fuliginea): C (from 25 to 49% control of cucumber powdery mildew)
- IC90 (Diplodia maydis (Dm); [10]): 2 µg/mL (≈ 3.64 µM)
- Wheat Fusarium Head Blight Control at a compound concentration of 25 ppm or lower (Fusarium graminearum): B (from 50 to 69% control of wheat fusarium head blight)
- Barley Powdery Mildew Control at a compound concentration of 10 ppm or lower [4]: A (from 70% to 84% control of barley powdery mildew)
- IC90 (Rhizoctonia solani (Rs); [11]): 0.4 µg/mL (≈ 0.728 µM)
- IC90 [5, 12]: 0.08 µg/mL (≈ 0.146 µM)
- Asian Soybean Rust Control at a compound concentration of 25 ppm or lower (Phakopsora pachyrhizi): D (<25% control of Asian soybean rust)
- Wheat Leaf Rust Control at a compound concentration of 10 ppm or lower (Puccinia triticina): C (from 25 to 49% control of wheat leaf rust)
- IC90 (Botrtyis cinerea (Bc); [13]): 0.4 µg/mL (≈ 0.728 µM)
- IC90 [6, 14]: 2 µg/mL (≈ 3.64 µM)

Structure (SMILES): COc1ccc(F)cc1[C@@H](O)Cn1c(=O)n([C@H](C)C(=O)N(C)C(C)C)c(=O)c2c(C)c(-n3nccn3)sc21 [Compound I-188, (R)-2-(1-((R)-2-(5-fluoro-2-methoxyphenyl)-2-hydroxyethyl)-5-methyl-2,4-dioxo-6-(2H-1,2,3-triazol-2-yl)-1,4-dihydrothieno[2,3-d]pyrimidin-3 (2H)-yl)-N-isopropyl-N-methylpropanamide]
- IC90 [1, 7]: 0.4 µg/mL (≈ 0.734 µM)
- IC90 (Septoria tritici (St); [8]): > 50 µg/mL
- Septoria Leaf Blotch Control at a compound concentration of 25 ppm or lower [2]: C (from 25 to 49% control of wheat septoria leaf blotch)
- IC90 [3, 9]: > 50 µg/mL
- Cucumber Powdery Mildew Control at a compound concentration of 10 ppm or lower (Sphaerotheca fuliginea): AA (≥85% control of cucumber powdery mildew)
- IC90 (Diplodia maydis (Dm); [10]): 2 µg/mL (≈ 3.67 µM)
- Wheat Fusarium Head Blight Control at a compound concentration of 25 ppm or lower (Fusarium graminearum): D (<25% control of wheat fusarium head blight)
- Barley Powdery Mildew Control at a compound concentration of 10 ppm or lower [4]: AA (≥85% control of barley powdery mildew)
- IC90 (Rhizoctonia solani (Rs); [11]): 0.4 µg/mL (≈ 0.734 µM)
- IC90 [5, 12]: 0.08 µg/mL (≈ 0.147 µM)
- Asian Soybean Rust Control at a compound concentration of 25 ppm or lower (Phakopsora pachyrhizi): B (from 50 to 69% control of Asian soybean rust)
- Wheat Leaf Rust Control at a compound concentration of 10 ppm or lower (Puccinia triticina): AA (≥85% control of wheat leaf rust)
- IC90 (Botrtyis cinerea (Bc); [13]): 0.4 µg/mL (≈ 0.734 µM)
- IC90 [6, 14]: 2 µg/mL (≈ 3.67 µM)
